Results published in the Deep4Chem optical property database.
Several values for one entry are separate records, joined by “and”; a condition that tells them apart may be missing. Equal entries are not always repeated. Blank lines part the entries; values can stand above or below the molecule they belong to.

Experiment: photoluminescence quantum yield (fraction); solvent given as SMILES

SMILES: CC(C)(C)c1cc(-c2cc3nc4c5ccc(N6c7ccccc7Oc7ccccc76)cc5c5cc(N6c7ccccc7Oc7ccccc76)ccc5c4nc3cc2-c2cc(C(C)(C)C)cc(C(C)(C)C)c2)cc(C(C)(C)C)c1
photoluminescence quantum yield (in c1ccc2c(c1)c1ccccc1n2-c1ccc(-c2ccc(-n3c4ccccc4c4ccccc43)cc2)cc1): 0.83

SMILES: COc1cc(/C=C/c2ccccn2)c(OC)cc1C=O
photoluminescence quantum yield (in C1CCOC1): 0.19
photoluminescence quantum yield (in CC#N): 0.24
photoluminescence quantum yield (in CN(C)C=O): 0.21
photoluminescence quantum yield (in Cc1ccccc1): 0.16
photoluminescence quantum yield (in ClCCl): 0.36

photoluminescence quantum yield (in CO): 0.21
photoluminescence quantum yield (in CS(C)=O): 0.26
SMILES: CCC1=C(C)C2=Cc3c4ccccc4c4n3[B-](c3cc[n+](C)cc3)(Oc3ccccc3-4)[N+]2=C1C=Cc1ccc(OC)cc1 (stereo not drawn)

photoluminescence quantum yield (in CC#N): 0.009
SMILES: O=c1[nH]c(=O)c2nc3ccccc3nc2[nH]1

photoluminescence quantum yield (in ClC(Cl)Cl): 0.12
SMILES: CC(C)(C)c1ccc(C2=c3sc(-c4ccc(C(C)(C)C)cc4)cc3=[N+]3C2=Nc2c(-c4ccc(C(C)(C)C)cc4)c4sc(-c5ccc(C(C)(C)C)cc5)cc4n2[B-]3(F)F)cc1

photoluminescence quantum yield (in CN(C)C=O): 0.98
SMILES: O=C1NC(=O)c2ccc3c4ccc5c6c(ccc(c7ccc1c2c73)c64)C(=O)N(c1ccc(Cl)cc1)C5=O

SMILES: c1ccc2nc(-n3c4ccccc4c4ccccc43)c(-n3c4ccccc4c4ccccc43)nc2c1
photoluminescence quantum yield (in Cc1ccccc1): 0.13

photoluminescence quantum yield (in C1CCOC1): 0.045
SMILES: COc1ccc(C(=Cc2ccc(/C=C(\C#N)c3ccc([N+](=O)[O-])cc3)cc2)c2ccc(OC)cc2)cc1

photoluminescence quantum yield (in C1COCCO1): 0.18
photoluminescence quantum yield (in ClCCl): 0.01
SMILES: CCCCN(CCCC)c1ccc(/C=C/c2ccc3nc(/C=C/c4nc5ccc(/C=C/c6ccc(N(CCCC)CCCC)cc6)cc5n(CCC)c4=O)c(=O)n(CCC)c3c2)cc1

photoluminescence quantum yield (in ClC(Cl)Cl): 0.11
SMILES: Cc1ccc2c3ccc(C)cc3c3cc4c(C)cc(=O)oc4cc3c2c1

photoluminescence quantum yield (in CO): 0.84
SMILES: C#CCOc1ccc(/C=C/C2=[N+]3C(=C(c4ccc(N(CC)CC)cc4)c4c(C)cc(C)n4[B-]3(F)F)C(C)=C2)cc1

SMILES: CCCCC(CC)CN1C(=O)c2cccc3c(C#Cc4ccc(N(c5ccccc5)c5ccc(C#Cc6ccc7c8c(cccc68)C(=O)N(CC(CC)CCCC)C7=O)cc5)cc4)ccc(c23)C1=O (stereo not drawn)
photoluminescence quantum yield (in C1CCCCC1): 0.93
photoluminescence quantum yield (in C1CCOC1): 0.85
photoluminescence quantum yield (in CC#N): 0.012
photoluminescence quantum yield (in Cc1ccccc1): 0.94
photoluminescence quantum yield (in ClC(Cl)Cl): 0.44

photoluminescence quantum yield (in ClCCl): 0.01
SMILES: CN(C)c1ccc(-c2cc3c(s2)c(C(=O)c2ccccc2)cc(=O)n3Cc2ccccc2)cc1

SMILES: O=C1c2ccccc2-c2ccc(N3CCOCC3)c3cccc1c23
photoluminescence quantum yield (in C1CCOC1): 0.15
photoluminescence quantum yield (in CCCCCC): 0.33
photoluminescence quantum yield (in CCO): 0.12
photoluminescence quantum yield (in CCOC(C)=O): 0.3
photoluminescence quantum yield (in CN(C)C=O): 0.14
photoluminescence quantum yield (in CO): 0.12
photoluminescence quantum yield (in Cc1ccccc1): 0.64
photoluminescence quantum yield (in ClC(Cl)(Cl)Cl): 0.18
photoluminescence quantum yield (in ClC(Cl)Cl): 0.53
photoluminescence quantum yield (in ClCCl): 0.53
photoluminescence quantum yield (in c1ccccc1): 0.68

photoluminescence quantum yield (in C1CCOC1): 0.00012
SMILES: CCOc1cc(C=C2c3ccccc3-c3ccccc32)c(OCC)cc1C=C1c2ccccc2C=Cc2ccccc21

SMILES: c1ccc(-c2cc(-c3ccccc3)cc(-c3ccc4c(c3)C3(c5ccccc5-4)c4ccccc4-c4c3c3c5ccccc5c(-c5cc(-c6ccccc6)cc(-c6ccccc6)c5)cc3c3ccccc43)c2)cc1 (stereo not drawn)
photoluminescence quantum yield (in Cc1ccccc1): 0.87

SMILES: c1ccc2c(c1)[nH]c1c3[nH]c4ccccc4c3c3nsnc3c21
photoluminescence quantum yield (in CN(C)C=O): 0.05
photoluminescence quantum yield (in Cc1ccccc1): 0.07
photoluminescence quantum yield (in ClCCl): 0.06

photoluminescence quantum yield (in CCO): 0.11
photoluminescence quantum yield (in CS(C)=O): 0.16
SMILES: CN1/C(=C/C=C(/C=C/C2=[N+](C)c3ccccc3C2(C)C)c2cccc(C(F)(F)F)c2)C(C)(C)c2ccccc21

SMILES: Cc1cc(C)cc(C)c1
photoluminescence quantum yield (in C1CCCCC1): 0.27

SMILES: CCCCCCC1(CCCCCC)c2cc(-c3nc(-c4ccc5c(c4)C(CCCCCC)(CCCCCC)c4cc(N6c7ccccc7Oc7ccccc76)ccc4-5)nc(-c4ccc5c(c4)C(CCCCCC)(CCCCCC)c4cc(N6c7ccccc7Oc7ccccc76)ccc4-5)n3)ccc2-c2ccc(N3c4ccccc4Oc4ccccc43)cc21
photoluminescence quantum yield (in C1CCOC1): 0.02
photoluminescence quantum yield (in CCCCCC): 0.52
photoluminescence quantum yield (in Cc1ccccc1): 0.45
photoluminescence quantum yield (in ClCCl): 0.01

SMILES: c1ccc2c(c1)-c1ccccc1C21c2ccccc2N(c2ccc(-c3nc([C@]45CC6CC(C[C@@H](C6)C4)C5)nc([C@]45C[C@H]6C[C@@H](C[C@H](C6)C4)C5)n3)cc2)c2ccccc21
photoluminescence quantum yield (in CC1(C)c2ccccc2N(c2cccc(N3c4ccccc4C(C)(C)c4ccccc43)c2)c2ccccc21): 0.67
photoluminescence quantum yield (in CC(C)(C)c1ccc(-n2c3ccc([Si](c4ccccc4)(c4ccccc4)c4ccccc4)cc3c3cc([Si](c4ccccc4)(c4ccccc4)c4ccccc4)ccc32)cc1): 0.76
photoluminescence quantum yield (in Cc1cc(-n2c3ccccc3c3ccccc32)ccc1-c1ccc(-n2c3ccccc3c3ccccc32)cc1C): 0.36
photoluminescence quantum yield (in O=P(c1ccccc1)(c1ccccc1)c1ccc([Si](c2ccccc2)(c2ccccc2)c2ccccc2)cc1): 0.84

photoluminescence quantum yield (in ClC(Cl)Cl): 0.94
SMILES: CCCCCCCCC1(CCCCCCCC)c2cc(-c3ccc(C(=O)OC)cc3)ccc2-c2ccc(-c3ccc(C(=O)OC)cc3)cc21

photoluminescence quantum yield (in ClCCl): 0.15
SMILES: CC(C)[Si](C#Cc1c2cc3ccccc3cc2c(C#C[Si](C(C)C)(C(C)C)C(C)C)c2cc3ccccc3cc12)(C(C)C)C(C)C

photoluminescence quantum yield (in ClCCl): 0.13
SMILES: CC(C)CCCC(C)CCN1C(=O)c2ccc3c(-c4ccccc4)c4c5ccc6c7c(ccc(c(-c8ccccc8)c4c4ccc(c2c34)C1=O)c75)C(=O)N(CCC(C)CCCC(C)C)C6=O (stereo not drawn)

SMILES: CCn1c2ccccc2c2cc(C#Cc3cc(C#Cc4ccc5c(c4)c4ccccc4n5CC)nc(C#N)n3)ccc21
photoluminescence quantum yield (in C1CCOC1): 0.66
photoluminescence quantum yield (in CCOC(C)=O): 0.68
photoluminescence quantum yield (in CN(C)C=O): 0.21
photoluminescence quantum yield (in Cc1ccccc1): 0.81
photoluminescence quantum yield (in ClCCl): 0.65

photoluminescence quantum yield (in CC#N): 0.2
SMILES: CC(=O)OC[C@H]1O[C@@H](OCC#Cc2ccc(C3=C4C(C)=CC(/C=C/c5ccc(N(C)C)cc5)=[N+]4[B-](F)(F)n4c(/C=C/c5ccc(N(C)C)cc5)cc(C)c43)cc2)[C@H](OC(C)=O)C(OC(C)=O)[C@@H]1OC(C)=O (stereo partly drawn)

photoluminescence quantum yield (in ClC(Cl)Cl): 0.49
SMILES: CC(C)n1c(=O)c2cc3ccc4cccc5ccc(c2c1=O)c3c45

photoluminescence quantum yield (in CCO): 0.11
SMILES: CC1(C)C(/C=C/C2=C(Cl)C(=C/C=C3/N(Cc4ccc(C(=O)O)cc4)c4ccccc4C3(C)C)/CCC2)=[N+](Cc2ccc(C(=O)O)cc2)c2ccccc21

photoluminescence quantum yield (in C1CCOC1): 0.11
photoluminescence quantum yield (in ClCCl): 0.13
SMILES: CCC(CC)COC1=CC2=C3c4cc(OCC(CC)CC)c(-c5ccccc5)n4[B-](F)(F)[n+]4c3n(c3cc(C(C)(C)C)ccc34)[B-](F)(F)[N+]2=C1c1ccccc1

SMILES: c1ccc(-c2nc3c4ccccc4c4ccccc4c3n2-c2cccc(-c3nc4c5ccccc5c5ccccc5c4n3-c3ccccc3)c2)cc1
photoluminescence quantum yield (in Cc1ccccc1): 0.75

photoluminescence quantum yield (in ClCCl): 0.33
SMILES: CCCCN(CCCC)c1ccc2c#cc3cc4c#cc5ccc(C(F)(F)F)cc5c#cc#cc5cc(N(CCCC)CCCC)ccc5c#cc4cc3c#cc3ccc(C(F)(F)F)cc3c#cc#cc2c1

SMILES: CCC1=C(C)C2=C(c3ccc(-c4c5ccccc5c(-c5ccccc5)c5ccccc45)cc3)c3c(C)c(CC)c(C)n3[B-](F)(F)[N+]2=C1C
photoluminescence quantum yield (in CC#N): 0.696
photoluminescence quantum yield (in CCCCCC): 0.756
photoluminescence quantum yield (in CCO): 0.841
photoluminescence quantum yield (in CN(C)C=O): 0.232
photoluminescence quantum yield (in Cc1ccccc1): 0.781
photoluminescence quantum yield (in ClCCl): 0.744

photoluminescence quantum yield (in C1CCCCC1): 0.72
SMILES: Cc1cc(C)c(B2c3cc(C(C)(C)C)cc4ccc5c6ccccc6c6cc(C(C)(C)C)cc2c6c5c34)c(C)c1

photoluminescence quantum yield (in CS(C)=O): 0.381
SMILES: CCN1\C(=C/C=C/C=C/C2=[N+](CC)c3ccc4cc(Br)ccc4c3C2(C)C)C(C)(C)c2c1ccc1cc(Br)ccc21

photoluminescence quantum yield (in ClCCl): 0.23
SMILES: CC(C)(C)c1ccc(C#Cc2cc3c(C#Cc4ccc(C(C)(C)C)cc4)c(C#Cc4ccc(C(C)(C)C)cc4)c4cc(C#Cc5ccc(C(C)(C)C)cc5)cc5c(C#Cc6ccc(C(C)(C)C)cc6)c(C#Cc6ccc(C(C)(C)C)cc6)c(c2)c3c45)cc1

SMILES: COc1cccc(C2=CC3=C(c4c(C)cc(C)cc4C)c4cc(-c5cccc(OC)c5)c(-c5cccc(OC)c5)n4[B-](F)(F)[N+]3=C2c2cccc(OC)c2)c1
photoluminescence quantum yield (in C1CCCCC1): 0.86
photoluminescence quantum yield (in C1CCOC1): 0.76
photoluminescence quantum yield (in CC#N): 0.65
photoluminescence quantum yield (in Cc1ccccc1): 0.78
photoluminescence quantum yield (in ClCCl): 0.83

photoluminescence quantum yield (in ClCCl): 0.00196
SMILES: CCOC(=O)C1=C(C(=O)OCC)C2(c3cc(Cl)ccc3-c3ccc(Cl)cc32)C2(/C=C/c3ccccc3)c3cc(OC)c(OC)cc3CCN12 (stereo not drawn)

photoluminescence quantum yield (in ClCCl): 0.01
SMILES: Oc1ccc(Br)cc1-c1nc2c(c3c1-c1ccccc1CC3)-c1ccccc1CC2

photoluminescence quantum yield (in CO): 0.14
SMILES: CC1(C)C(/C=C/C2=C(Oc3ccc(CCN=C=S)cc3Br)C(=C/C=C3/N(CCCS(=O)(=O)[O-])c4ccccc4C3(C)C)/CCC2)=[N+](CCCS(=O)(=O)[O-])c2ccccc21

photoluminescence quantum yield (in ClCCl): 0.02
SMILES: COc1ccc(/C=C/c2cc(/C=C/c3ccc(N(c4ccccc4)c4ccccc4)cc3)nc(/C=C/c3ccc(N(C)C)cc3)n2)cc1

photoluminescence quantum yield (in C1CCCCC1): 0.23
SMILES: Cc1ccc(-c2ccccc2)cc1

photoluminescence quantum yield (in C1CCOC1): 0.00084
SMILES: CCCCC1(CCCC)c2cc(C#Cc3ccc(C=C4c5ccccc5C=Cc5ccccc54)cc3)ccc2-c2ccc(C#Cc3ccc(C=C4c5ccccc5C=Cc5ccccc54)cc3)cc21

SMILES: N#Cc1c(-n2c3ccccc3c3ccccc32)c(-n2c3ccccc3c3ccccc32)c(-n2c3ccccc3c3ccccc32)c(-n2c3ccccc3c3ccccc32)c1-n1c2ccccc2c2ccccc21
photoluminescence quantum yield (in Cc1ccccc1): 0.75 and 0.7
photoluminescence quantum yield (in c1cc(-c2cccc(-n3c4ccccc4c4ccccc43)c2)cc(-n2c3ccccc3c3ccccc32)c1): 0.65

photoluminescence quantum yield (in C1COCCO1): 0.95
photoluminescence quantum yield (in CC#N): 0.86
photoluminescence quantum yield (in CO): 0.66
photoluminescence quantum yield (in ClCCl): 0.9
SMILES: COC(=O)c1nc2c(N(C)C)nc(N(C)C)nc2n1Cc1ccccc1

photoluminescence quantum yield (in ClC(Cl)Cl): 0.01
SMILES: O=Cc1ccc(C#CC(C#Cc2ccc(C=O)o2)=Cc2ccc(C=C(C#Cc3ccc(C=O)o3)C#Cc3ccc(C=O)o3)s2)o1

photoluminescence quantum yield (in ClC(Cl)Cl): 0.33
SMILES: CN(C)c1ccc(-c2ccc(-c3cc(-c4ccccc4)c(-c4ccccc4)c(-c4ccccc4)c3-c3ccccc3)nc2)cc1
